Laboratory results reported in US7476401B2, “Protein and peptide delivery to mammalian cells in vitro” (Mirus Bio LLC, priority 2003, dated 2009).

System: HeLa cells
Assay: Protein delivery to HeLa cells, visualized by fluorescence confocal microscopy
Format: cell-based
Details: technique #2, FIG. 2B
Protocol: HeLa cells were maintained in DMEM containing 10% fetal bovine serum. For polypeptide delivery, cells were plated in 6-well plates containing glass cover slips at a density of 50,000-100,000 cells per well and grown for 24-48 hours before incubation with polypeptide formulations.
Two different techniques were used for contacting polypeptide formulations with cells. In both techniques, cells were grown to 30-70% confluency and washed once with 2 ml 37° C. PBS prior to addition of polypeptide formulations.
Technique #1: Peptide formulations were diluted by addition of 150 μl 37° C. PBS (180-200 μl total volume). Formulations were than added to cells on cover slips. Following a 5 min incubation at room temperature (RT) 0.8 ml 37° C. DMEM was added to each well and cells were again incubated for 5 min at RT. Media was then aspirated off cells and 2.0 ml DMEM containing 10% bovine serum was added. […]
Visualization of polypeptide delivery to cells: In order to visually analyze polypeptide delivery, cells were washed 3× with PBS, fixed for 30 min at 4° C. in PBS containing 4% formaldehyde and washed 3× with PBS. Cover slips were then mounted onto slides for fluorescence microscopy using a Zeiss LSM510 laser confocal microscope. Rhodamine was detected by exciting with a HeNe laser at 543 nm and detecting with a 560 nm long pass filter. […]

Which “uptake of modified protein by cells” value does the source give for “modification #26: Rhodamine-labeled Bovine Serum Albumin modified with chlorodimethyloctadecylsilane, dried, hydrated with PBS” here?
Its value is “uptake of BSA”.
